Data published in US20200131227A1, “POLYPEPTIDE WITH TUMOUR BINDING ACTIVITY” (RUPRECHT-KARLS-UNIVERSITÄT HEIDELBERG, priority 2017, published 2020).
Where a SMILES comes first, the peptide text is derived from it. Bridges are numbered along the chain shown (N, C = ends). The star is where a group is joined. DOTA = O=C(O)CN1CCN(CC(=O)O)CCN(CC(=O)*)CCN(CC(=O)O)CC1

Columns and labels:
[1] = tested on: HNO97 cells; type: binding, human; conditions: 48 h
Experimental: (§1) For binding studies, 2.5×10^5 to 4×10^5 cells were seeded in 6-well plates and cultivated for 48 hours. Cells were incubated for 60 min with 1 mL serum-free medium containing the ^125I-labeled peptide (see above). For competition experiments, cells were simultaneously exposed to unlabeled (10^-4 M to 10^-10 M) and ^125I-labeled peptides. After three washing steps with PBS (pH 7.4) the cells were lysed with 0.5 mL of 0.3 M NaOH. Experiments concerning the internalization, kinetics and efflux were additionally performed with ^177Lu-DOTA-SFITGv6. To evaluate kinetics and efflux HNO97 cells were incubated for different time intervals (10 min to 480 min) and 60 min, respectively, with ^177Lu-DOTA-SFITGv6 and lysed as described. To continue with the efflux experiment radioactive medium was replaced by non-radioactive medium and cells were incubated again for 60 to 240 min before measuring radioactivity of the cell lysates and the medium. For internalization experiments the cells were exposed to ^177Lu-DOTA-SFITGv6 for different time intervals (10 to 240 min) at 37° C. and 4° C. After three washing steps with PBS the cells were incubated with 1 mL of glycine-HCl 50 mmol/L in PBS (pH 2.8) for 10 min at RT to remove the surface bound activity. Then, cells were washed with 3 mL of ice-cold PBS and lysed as described. Radioactivity was determined in a gamma counter and calculated as percentage of the applied dose per 1×10^6 cells. Experiments were performed three times, and three repetitions per independent experiment were acquired.

[2] = tested on: tumor-free lymph nodes; assay: Histochemical peptide staining of carcinoma-free lymph nodes; set-up: species or system human
Experimental: Staining with the biotinylated PEG(12)-SFITGv6 peptide was performed on acetone-fixed cryosections (5 μm) of tumor tissues after blocking of unspecific binding using the Avidin/Biotin Blocking Kit (SP-2001, Vector Laboratories). A stock solution of the lyophilized peptide was prepared by dilution in 5% aqueous DMSO. Slices were incubated overnight at 4° C. with 10^-5 M peptide concentration in antibody diluent (DAKO). Detection of bound peptide was carried out with the Vectastain Elite ABC Kit (PK-6100, Vector Laboratories) according to manufacturer's protocol. Peptide specificity was ensured by a scrambled (GRD) PEG(12)-SFITGv6 derivate, the somatostatin receptor ligand DOTATOC and negative controls (without peptide or primary antibody) Staining results were assessed by bright field microscopy (BX50) with the SC30 camera and the cell Sense software (all Olympus).

[3] = tested on: HNO97 cells; assay: In vitro binding, kinetics, internalization and efflux on HNO97 cells; type: cell-based, human
Experimental: as §1
For the assessment of the peptide binding capacity in vitro, 2.5-4×10^5 cells were seeded into 6-well plates and cultivated for 48 h. ^125I-labeled peptide resuspended in 1 mL serum-free medium was added and incubated for either 10 min or 60 min with or without different concentrations of unlabeled peptide (10^−4-10^−11 M). Afterwards, cell monolayers were washed three times with 1 mL phosphate-buffered saline (pH 7.4) to remove unbound peptide and the cells were harvested with 1.4 mL lysis buffer (0.3 M NaOH). To evaluate kinetic properties the cells were exposed to ^177Lu-DOTA-labeled peptides for 10, 30, 60, 120, and 240 min, respectively, and lysed as described. For the efflux experiments the cells were incubated with ^177Lu-DOTA-labeled peptides for 60 min. Thereafter, radioactive medium was replaced by non-radioactive medium and cell monolayers were incubated for additional 60, 120, and 240 min and afterwards lysed as described earlier. The internalization was assessed after exposure of the cells to ^177Lu-DOTA-labeled peptides for 10, 30, 60, 120, and 240 min at 37° C. Unspecifically bound peptide was removed from the surface by incubation with 1 M glycine-HCl solution (pH 2.2) for 10 min. The monolayer cell was rinsed with PBS and cells were lysed as described before. Radioactivity was determined in a y-counter and calculated as percentage of the applied dose per 1×10^6 cells. Experiments were performed three times, and three repetitions per independent experiment were acquired.

[4] = tested on: ovarian cancer; assay: Scintigraphy of ovarian cancer patients; type: in vivo, human; conditions: 1 day after 6 GBq and 7.4 GBq
Experimental: PET/CT scans of tumor patients and body scintigraphy were performed as described in Example 1.

[5] = tested on: HNO223 cells; assay: In vitro binding on HNO223 cells; type: cell-based, human; conditions: Example 2, 10 min to 480 min (FIG. 16)
Experimental: For binding studies, 2.5×10^5 to 4×10^5 cells were seeded in 6-well plates and cultivated for 48 hours. Cells were incubated for 60 min with 1 mL serum-free medium containing the ^125I-labeled peptide (see above). For competition experiments, cells were simultaneously exposed to unlabeled (10^-4 M to 10^-10 M) and ^125I-labeled peptides. After three washing steps with PBS (pH 7.4) the cells were lysed with 0.5 mL of 0.3 M NaOH. Experiments concerning the internalization, kinetics and efflux were additionally performed with ^177Lu-DOTA-SFITGv6. […] To continue with the efflux experiment radioactive medium was replaced by non-radioactive medium and cells were incubated again for 60 to 240 min before measuring radioactivity of the cell lysates and the medium. […] Radioactivity was determined in a gamma counter and calculated as percentage of the applied dose per 1×10^6 cells. […]
For the assessment of the peptide binding capacity in vitro, 2.5-4×10^5 cells were seeded into 6-well plates and cultivated for 48 h. ^125I-labeled peptide resuspended in 1 mL serum-free medium was added and incubated for either 10 min or 60 min with or without different concentrations of unlabeled peptide (10^−4-10^−11 M). […] The internalization was assessed after exposure of the cells to ^177Lu-DOTA-labeled peptides for 10, 30, 60, 120, and 240 min at 37° C. […]

[6] = Biodistribution, Capan-2 xenografts; type: in vivo, mice; conditions: Balb/c nude, mouse, tumor (Capan-2 xenograft), iv, 1 MBq, total radioactivity; after 1 hour (highest)
Experimental: 6 to 8 week old Balb c/c nude mice (Charles River Lab.) were inoculated with 5*10^6 Capan-2 cells in 100 μl Opti-MEM medium. After 4 to 6 weeks the tumor has grown 10-15 mm in diameter. For small animal PET imaging 25 MBq of the ^68Ga-labeled peptide (2 nmol) was injected into the tail vein.
For biodistribution assays 1 MBq of ^177Lu-labeled peptide was injected into the tail vein of each mouse. After different time points each animal was sacrificed. Peripheral blood, spleen, liver, intestine, kidney, heart, lung, brain, muscle, and tumor were removed and weighted. Radioactivity was measured in a gamma counter and expressed as injected dose per gram (% ID/g).

SMILES | IC50 [1] | histochemical peptide staining result [2] | internalization ([3]; % of the total bound peptide, Example 2, within 60 min) | maximum binding capacity of ^177Lu-DOTA-labeled peptide (kinetics) ([3]; Example 2, 10 min to 480 min (FIG. 16)) | total bound ^177Lu-DOTA-labeled peptide (internalization experiment) ([3]; Example 2, FIG. 17A, B) | scintigraphic accumulation [4] | maximum binding capacity of ^177Lu-DOTA-labeled peptide (kinetics) [5] | tissue uptake at 1 h [6]
CSCC[C@@H]1NC(=O)[C@H](CC(C)C)NC(=O)[C@H](CC(=O)O)NC(=O)CNC(=O)[C@H](CCCNC(=N)N)NC(=O)[C@H](Cc2ccccc2)NC(=O)[C@H]([C@@H](C)O)NC(=O)[C@@H](NC(=O)[C@H](CCCNC(=N)N)NC(=O)CN)CSSC[C@@H](C(=O)N[C@@H](Cc2ccc(O)cc2)C(=O)N2CCC[C@H]2C(=O)N[C@@H](CC(=O)O)C(=O)O)NC(=O)[C@H](CC(C)C)NC(=O)[C@H](CCC(N)=O)NC1=O [SFITGv6, NH2-G-R-C1-T-F-R-G-D-L-M-Q-L-C1-Y-P-D-COOH] (H-GRCTFRGDLMQLCYPD-OH; disulfide 3-13) | 16.1 nM | did not show any SFITGv6-specificy |  |  |  |  |  | 
CC(C)C[C@@H]1NC(=O)[C@H](CC(=O)O)NC(=O)CNC(=O)[C@H](CCCNC(=N)N)NC(=O)CNC(=O)[C@H]([C@@H](C)O)NC(=O)[C@@H](NC(=O)[C@H](CCCNC(=N)N)NC(=O)CNC(=O)CN2CCN(CC(=O)O)CCN(CC(=O)O)CCN(CC(=O)O)CC2)CSSC[C@@H](C(=O)N[C@@H](Cc2ccc(O)cc2)C(=O)N2CCC[C@H]2C(=O)N[C@@H](CC(=O)O)C(N)=O)NC(=O)[C@H](CC(C)C)NC(=O)[C@H](CCCNC(=N)N)NC(=O)CNC1=O [^177Lu-DOTA-SFLAP3, metal not drawn] ({DOTA}-GRCTGRGDLGRLCYPD-NH2; disulfide 3-13; N-terminus and C-terminus assumed) |  |  | 60% | 18.5% | 11.14% | moderate to good accumulation in the metastases | 9.66% | 4 %ID/g
